# pIC50: −log10 of the molar value. Read-outs that look alike come from different tables or passages of the source.
# Columns and labels:
# [1] = biological target: ABL1 (Homo sapiens, UniProt P00519); experiment: Z'-LYTE SelectScreen biochemical kinase assay ABL1
# From the text: (§1) Thermo Fisher Scientific SelectScreen™ Biochemical Kinase Profiling Service Z′-LYTE™ Screening Protocol and Assay Conditions Assay Theory
# (§2) The […] biochemical assay employs a fluorescence-based, coupled-enzyme format and is based on the differential sensitivity of phosphorylated and non-phosphorylated peptides to proteolytic cleavage. The peptide substrate is labeled with two fluorophores—one at each end—that make up a FRET pair. In the primary reaction, the kinase transfers the gamma-phosphate of ATP to a single tyrosine, serine or threonine residue in a synthetic FRET-peptide. In the secondary reaction, a site-specific protease recognizes and cleaves non-phosphorylated FRET-peptides. Phosphorylation of FRET-peptides suppresses cleavage by the Development Reagent. Cleavage disrupts FRET between the donor (i.e., coumarin) and acceptor (i.e., fluorescein) fluorophores on the FRET-peptide, whereas uncleaved, phosphorylated FRET-peptides maintain FRET. A ratiometric method, which calculates the ratio (Emission Ratio=Coumarin emission (445 nm)/Fluorescein emission (520 nm)) of donor emission to acceptor emission after excitation of the donor fluorophore at 400 nm, is used to quantitate reaction progress, as shown in the equation below. A significant benefit of this ratiometric method for quantitating reaction progress is the elimination of well-to-well variations in FRET-peptide concentration and signal intensities. As a result, the assay yields very high Z′-factor values (>0.7) at a low percent phosphorylation. Both cleaved and uncleaved FRET-peptides contribute to the fluorescence signals and therefore to the Emission Ratio. The extent of phosphorylation of the FRET-peptide can be calculated from the Emission Ratio. The Emission Ratio will remain low if the FRET-peptide is phosphorylated (i.e., no kinase inhibition) and will be high if the FRET-peptide is non-phosphorylated (i.e., kinase inhibition).
# (§3) The Test Compounds are screened in 1% DMSO (final) in the well. For 10 point titrations, 3-fold serial dilutions are conducted from the starting concentration of the customer's choosing.
# (§4) All Peptide/Kinase Mixtures are diluted to a 2× working concentration in the appropriate Kinase Buffer (see section Kinase Specific Assay Conditions for a complete description).
# (§5) All ATP Solutions are diluted to a 4× working concentration in Kinase Buffer (50 mM HEPES pH 7.5, 0.01% BRIJ-35, 10 mM MgCl2, 1 mM EGTA). ATP Km apparent is previously determined using a Z″-LYTE assay.
# (§6) The Development Reagent is diluted in Development Buffer (see section Kinase-Specific Assay Conditions—Direct and Cascade for a complete description).
# (§7) Bar-coded Corning, low volume NBS, black 384-well plate (Corning Cat. #4514) • 1. 100 nL—100× Test Compound in 100% DMSO • 2. 2.4 μL—Kinase buffer • 3. 5 μL—2× Peptide/Kinase Mixture • 4. 2.5 μL—4×ATP Solution • 5. 30—second plate shake • 6. 60—minute Kinase Reaction incubation at room temperature • 7. 5 μL—Development Reagent Solution • 8. 30—second plate shake • 9. 60—minute Development Reaction incubation at room temperature • 10. Read on fluorescence plate reader and analyze the data Z′-LYTE Assay Controls
# (§8) SelectScreen Kinase Profiling Service uses XLfit from IDBS. The dose response curve is curve fit to model number 205 (sigmoidal dose-response model).
# (§9) The 2×ABL1/Tyr 02 mixture is prepared in 50 mM HEPES pH 7.5, 0.01% BRIJ-35, 10 mM MgCl2, 1 mM EGTA. The final 10 μL Kinase Reaction consists of 0.29-1.26 ng ABL1 and 2 μM Tyr 02 in 50 mM HEPES pH 7.5, 0.01% BRIJ-35, 10 mM MgCl2, 1 mM EGTA. After the 1 hour Kinase Reaction incubation, 5 μL of a 1:128 dilution of Development Reagent A is added.
# [2] = test system: Aβ42 production; experiment: Inhibition of Aβ42 production in H4 neuroglioma cells stably expressing human APP695 (MSD electrochemiluminescence); format: cell-based; settings: H4 neuroglioma cells expressing human APP695, 22 hours incubation; Table 4a
# [3] = biological target: RET (Homo sapiens, UniProt P07949); experiment: Z'-LYTE SelectScreen biochemical kinase assay RET
# Sequence of RET (P07949 29-1114): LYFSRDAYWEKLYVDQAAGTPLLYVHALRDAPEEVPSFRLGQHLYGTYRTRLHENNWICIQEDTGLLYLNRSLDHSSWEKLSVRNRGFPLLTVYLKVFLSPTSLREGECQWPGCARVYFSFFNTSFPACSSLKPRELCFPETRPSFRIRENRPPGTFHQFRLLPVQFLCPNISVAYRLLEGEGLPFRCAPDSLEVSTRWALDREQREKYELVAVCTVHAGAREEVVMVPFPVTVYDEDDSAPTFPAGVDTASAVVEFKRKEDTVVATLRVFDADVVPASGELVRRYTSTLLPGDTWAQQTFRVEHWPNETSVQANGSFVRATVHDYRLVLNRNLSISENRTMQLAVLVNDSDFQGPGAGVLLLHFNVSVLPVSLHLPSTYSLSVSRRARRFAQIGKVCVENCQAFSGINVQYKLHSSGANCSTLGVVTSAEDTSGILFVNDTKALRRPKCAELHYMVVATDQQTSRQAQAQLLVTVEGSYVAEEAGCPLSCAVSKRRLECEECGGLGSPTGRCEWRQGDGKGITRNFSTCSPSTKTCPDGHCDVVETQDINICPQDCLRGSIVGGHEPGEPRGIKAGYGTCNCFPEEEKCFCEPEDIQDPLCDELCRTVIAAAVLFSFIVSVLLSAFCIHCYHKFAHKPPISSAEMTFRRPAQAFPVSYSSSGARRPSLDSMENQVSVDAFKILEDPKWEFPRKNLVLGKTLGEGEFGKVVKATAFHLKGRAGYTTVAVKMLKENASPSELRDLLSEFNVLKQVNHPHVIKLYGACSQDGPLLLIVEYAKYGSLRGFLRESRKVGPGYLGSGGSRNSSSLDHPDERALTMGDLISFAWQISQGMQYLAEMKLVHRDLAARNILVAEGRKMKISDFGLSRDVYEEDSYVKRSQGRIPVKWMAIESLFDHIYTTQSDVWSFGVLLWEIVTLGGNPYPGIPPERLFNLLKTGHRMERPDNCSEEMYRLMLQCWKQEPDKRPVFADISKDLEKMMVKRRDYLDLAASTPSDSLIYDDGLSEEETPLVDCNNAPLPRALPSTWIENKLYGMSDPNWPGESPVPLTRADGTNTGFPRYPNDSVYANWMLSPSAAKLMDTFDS
# From the text: as §1, §2, §3, §4, §5, §6, §7, §8
# as §9, with “2×RET/Tyr” for “2×ABL1/Tyr”, “0.49-3.64” for “0.29-1.26”, “RET” for “ABL1”
# [4] = biological target: FGFR2 (Homo sapiens, UniProt P21802); experiment: Z'-LYTE SelectScreen biochemical kinase assay FGFR2
# Sequence of FGFR2 (P21802 22-821): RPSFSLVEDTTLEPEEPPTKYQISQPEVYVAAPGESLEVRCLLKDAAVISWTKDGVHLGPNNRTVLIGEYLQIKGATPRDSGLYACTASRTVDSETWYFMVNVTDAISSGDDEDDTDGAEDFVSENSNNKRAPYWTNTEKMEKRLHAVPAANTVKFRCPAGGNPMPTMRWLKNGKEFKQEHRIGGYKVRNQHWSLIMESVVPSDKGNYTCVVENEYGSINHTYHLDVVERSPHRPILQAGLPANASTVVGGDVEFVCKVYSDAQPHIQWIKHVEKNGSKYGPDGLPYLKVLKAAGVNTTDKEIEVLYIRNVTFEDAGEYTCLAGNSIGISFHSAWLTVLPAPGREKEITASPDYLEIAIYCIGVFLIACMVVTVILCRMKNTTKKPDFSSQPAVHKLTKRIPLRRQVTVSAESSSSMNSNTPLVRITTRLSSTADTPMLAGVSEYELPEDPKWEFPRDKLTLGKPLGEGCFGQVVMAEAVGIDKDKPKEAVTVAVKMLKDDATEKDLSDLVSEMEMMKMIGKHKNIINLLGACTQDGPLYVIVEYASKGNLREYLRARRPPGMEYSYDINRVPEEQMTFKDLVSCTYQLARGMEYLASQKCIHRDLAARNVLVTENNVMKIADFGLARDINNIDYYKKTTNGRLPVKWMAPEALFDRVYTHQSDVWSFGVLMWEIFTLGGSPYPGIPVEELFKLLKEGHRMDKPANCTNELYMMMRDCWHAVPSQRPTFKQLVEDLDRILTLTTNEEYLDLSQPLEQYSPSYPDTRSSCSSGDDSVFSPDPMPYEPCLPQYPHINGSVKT
# From the text: as §1, §2, §3, §4, §5, §6, §7, §8
# The 2×FGFR2/Tyr 04 mixture is prepared in 50 mM HEPES pH 7.5, 0.01% BRIJ-35, 10 mM MgCl2, 4 mM MnCl2, 1 mM EGTA, 2 mM DTT. The final 10 μL Kinase Reaction consists of 0.19-1.99 ng FGFR2 and 2 μM Tyr 04 in 50 mM HEPES pH 7.5, 0.01% BRIJ-35, 10 mM MgCl2, 2 mM MnCl2, 1 mM EGTA, 1 mM DTT. After the 1 hour Kinase Reaction incubation, 5 μL of a 1:64 dilution of Development Reagent B is added.
# [5] = 10 μmolar compound concentration, ATP at Km app, read-out: ABL1 inhibition
# [6] = read-out: % Inhibition mean ABL1
# [7] = 10 μmolar compound concentration, ATP at Km app, read-out: RET inhibition
# [8] = read-out: % Inhibition mean RET
# [9] = 10 μmolar compound concentration, ATP at Km app, read-out: FGFR2 inhibition
# [10] = read-out: % Inhibition mean FGFR2
# Sequence of ABL1 (P00519 whole entry): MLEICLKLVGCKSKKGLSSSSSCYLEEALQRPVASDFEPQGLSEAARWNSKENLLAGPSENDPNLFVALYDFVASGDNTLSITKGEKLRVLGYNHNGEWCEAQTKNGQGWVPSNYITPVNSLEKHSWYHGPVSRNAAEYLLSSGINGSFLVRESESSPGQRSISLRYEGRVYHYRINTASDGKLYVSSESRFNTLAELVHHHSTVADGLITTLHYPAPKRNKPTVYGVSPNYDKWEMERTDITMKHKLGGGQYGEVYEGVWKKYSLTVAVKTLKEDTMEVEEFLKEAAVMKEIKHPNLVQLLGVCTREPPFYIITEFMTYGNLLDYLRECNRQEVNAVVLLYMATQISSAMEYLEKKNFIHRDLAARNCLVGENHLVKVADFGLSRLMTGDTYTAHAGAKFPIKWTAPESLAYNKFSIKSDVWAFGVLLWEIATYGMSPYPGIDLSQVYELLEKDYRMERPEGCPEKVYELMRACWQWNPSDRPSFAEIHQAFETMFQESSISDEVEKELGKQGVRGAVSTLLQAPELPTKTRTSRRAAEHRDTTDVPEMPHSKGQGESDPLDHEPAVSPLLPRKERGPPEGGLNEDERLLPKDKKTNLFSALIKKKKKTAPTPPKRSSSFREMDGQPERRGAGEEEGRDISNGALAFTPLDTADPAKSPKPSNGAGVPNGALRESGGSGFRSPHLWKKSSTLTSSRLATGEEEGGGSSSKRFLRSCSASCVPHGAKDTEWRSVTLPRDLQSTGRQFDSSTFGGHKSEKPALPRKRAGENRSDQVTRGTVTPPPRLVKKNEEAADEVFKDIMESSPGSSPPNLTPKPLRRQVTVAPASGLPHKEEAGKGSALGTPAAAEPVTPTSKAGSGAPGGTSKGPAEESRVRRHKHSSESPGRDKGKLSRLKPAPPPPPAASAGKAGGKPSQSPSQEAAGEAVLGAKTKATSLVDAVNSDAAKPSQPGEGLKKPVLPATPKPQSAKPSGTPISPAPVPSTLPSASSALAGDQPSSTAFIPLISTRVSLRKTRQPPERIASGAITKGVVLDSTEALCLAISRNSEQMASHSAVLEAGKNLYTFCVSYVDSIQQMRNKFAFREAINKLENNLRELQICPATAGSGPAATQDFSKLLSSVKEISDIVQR
SMILES,"inhibition at 10 µM [1, 5] [%]","inhibition at 10 µM [1, 6] [%]",pIC50 [2],"inhibition at 10 µM [3, 7] [%]","inhibition at 10 µM [3, 8] [%]","inhibition at 10 µM [4, 9] [%]","inhibition at 10 µM [4, 10] [%]"
"CCc1nn(C)c2c1CCC(Nc1nc3c(-c4ccc(F)cc4C)cccn3n1)C2 (stereo not drawn) [Example 54, (3-Ethyl-1-methyl-4,5,6,7-tetrahydro-1H-indazol-6-yl)-[8-(4-fluoro-2-methyl-phenyl)-[1,2,4]triazolo[1,5-a]pyridine-2-yl]-amine]",< 40,12,5.50,< 40,15,< 40,25
"CCn1ncc2c1CC[C@@H](Nc1nc3c(-c4ccc(F)c(Cl)c4)cccn3n1)C2 [Example R-61, (R)-[8-(3-Chloro-4-fluoro-phenyl)-[1,2,4]triazolo[1,5-a]pyridine-2-yl]-(1-ethyl-4,5,6,7-tetrahydro-1H-indazol-5-yl)-amine]",< 40,3,8.05,< 40,20,< 40,12
"CCn1ncc2c1CCC(Nc1nc3c(-c4ccc(F)cc4C)cccn3n1)C2 (stereo not drawn) [Example 42, (1-Ethyl-4,5,6,7-tetrahydro-1H-indazol-5-yl)-[8-(4-fluoro-2-methyl-phenyl)-[1,2,4]triazolo[1,5-a]pyridine-2-yl]-amine]",< 40,19,7.15,< 40,29,< 40,26
"CCn1ncc2c1CCC(Nc1nc3c(-c4ccc(C)nc4)cccn3n1)C2 (stereo not drawn) [Example 67, (1-Ethyl-4,5,6,7-tetrahydro-1H-indazol-5-yl)-[8-(6-methyl-pyridin-3-yl)-[1,2,4]triazolo[1,5-a]pyridine-2-yl]-amine]",< 40,11,6.17,< 40,24,< 40,30

# Now from value to compound:
"inhibition at 10 µM [1, 5] [%]","inhibition at 10 µM [1, 6] [%]",pIC50 [2],"inhibition at 10 µM [3, 7] [%]","inhibition at 10 µM [3, 8] [%]","inhibition at 10 µM [4, 9] [%]","inhibition at 10 µM [4, 10] [%]",SMILES
< 40,6,5.66,< 40,2,< 40,28,"CCn1nnc2c1CCC(Nc1nc3c(-c4ccc(F)cc4C)cccn3n1)C2 (stereo not drawn) [Example 51, (1-Ethyl-4,5,6,7-tetrahydro-1H-benzotriazol-5-yl)-[8-(4-fluoro-2-methyl-phenyl)-[1,2,4]triazolo[1,5-a]pyridine-2-yl]-amine]"
< 40,15,6.02,< 40,22,< 40,31,"CCn1ncc2c1C(C)CC(Nc1nc3c(-c4cc(F)c(F)c(F)c4)cccn3n1)C2 (stereo not drawn) [Example 49, (1-Ethyl-7-methyl-4,5,6,7-tetrahydro-1H-indazol-5-yl)-[8-(3,4,5-trifluoro-phenyl)-[1,2,4]triazolo[1,5-a]pyridine-2-yl]-amine]"

# Reference: patent US11339161B2, “Triazolo pyridines as modulators of gamma-secretase” (Boehringer Ingelheim International GmbH, priority 2017, dated 2022)
